Assay results reported in ChEMBL document CHEMBL3600350, “Peptide HIV fusion inhibitors: modifications and conjugations” (Medchemcomm, 2014).
Numbered stars: 1 amine (or outer) side, 2 acyl side, 3 side chain; on linkers, the order of the positions; unused ones are H or OH. Square brackets hold non-standard residues; d marks the D form. Peptide text beside a SMILES is read from it. X1 = CCCCCCCCCCCCCCCC(=O)NC(=O)CC[C@H](N[*:1])C(=O)[*:2]

System: Human immunodeficiency virus 1
Assay: Antiviral activity against HIV-1 HXB2 assessed as inhibition of viral infection in human TZM-bl cells after 18 hrs by steady-glo luciferase reporter gene assay
Type: functional, organism-based
Details: Human immunodeficiency virus 1, HXB2, TZM-bl

Row | IC50 | Molecule
1 | 121 nM | CCCCCCCCCCCCCCCC(O)C(CO)NC(=O)N[C@@H](CC(C)C)C(=O)N[C@@H](CC(C)C)C(=O)N[C@@H](CCC(N)=O)C(=O)N[C@@H](CC(C)C)C(=O)N[C@H](C(=O)N[C@H](C(=O)N[C@@H](Cc1c[nH]c2ccccc12)C(=O)NCC(=O)N[C@H](C(=O)N[C@@H](CCCCN)C(=O)N[C@@H](CCC(N)=O)C(=O)N[C@@H](CC(C)C)C(=O)N[C@@H](CCC(N)=O)C(=O)N[C@@H](C)C(=O)N[C@@H](CCCNC(=N)N)C(=O)N[C@H](C(=O)N[C@@H](CC(C)C)C(=O)O)[C@@H](C)CC)[C@@H](C)CC)C(C)C)[C@H](C)O (some centres undefined)
2 | 350 nM | CCCCCCCCCCCCCCCC(O)C(CO)NC(=O)NC(=O)[C@H](CCCCN)NC(=O)[C@H](CC(N)=O)NC(=O)[C@H](CCCCN)NC(=O)[C@H](CCC(=O)O)NC(=O)[C@H](CCC(N)=O)NC(=O)[C@H](CCC(N)=O)NC(=O)[C@H](CC(N)=O)NC(=O)[C@H](CCC(N)=O)NC(=O)[C@H](CO)NC(=O)[C@H](CCC(=O)O)NC(=O)[C@H](CCC(=O)O)NC(=O)[C@@H](NC(=O)[C@H](CC(C)C)NC(=O)[C@H](CO)NC(=O)[C@H](Cc1c[nH]cn1)NC(=O)[C@@H](NC(=O)[C@H](CC(C)C)NC(=O)[C@H](CO)NC(=O)[C@@H](NC(=O)[C@@H](N)Cc1ccc(O)cc1)[C@H](C)O)[C@@H](C)CC)[C@@H](C)CC (some centres undefined)
3 | > 4000 nM | CC[C@H](C)[C@H](NC(=O)[C@H](CC(C)C)NC(=O)[C@H](CO)NC(=O)[C@H](Cc1c[nH]cn1)NC(=O)[C@@H](NC(=O)[C@H](CC(C)C)NC(=O)[C@H](CO)NC(=O)[C@@H](NC(=O)[C@@H](N)Cc1ccc(O)cc1)[C@H](C)O)[C@@H](C)CC)C(=O)N[C@@H](CCC(=O)O)C(=O)N[C@@H](CCC(=O)O)C(=O)N[C@@H](CO)C(=O)N[C@@H](CCC(N)=O)C(=O)N[C@@H](CC(N)=O)C(=O)N[C@@H](CCC(N)=O)C(=O)N[C@@H](CCC(N)=O)C(=O)N[C@@H](CCC(=O)O)C(=O)N[C@@H](CCCCN)C(=O)N[C@@H](CC(N)=O)C(=O)N[C@@H](CCCCN)C(=O)O
4 | 287 nM | CCCCCCCCCCCCCCCC(O)C(CO)NCNC(=O)[C@@H](CCCCN)NC(=O)[C@H](CC(C)C)NC(=O)[C@@H](NC(=O)[C@H](CCCNC(=N)N)NC(=O)[C@H](C)NC(=O)[C@H](CCC(N)=O)NC(=O)[C@H](CC(C)C)NC(=O)[C@H](CCC(N)=O)NC(=O)[C@H](CCCCN)NC(=O)[C@@H](NC(=O)CNC(=O)[C@H](Cc1c[nH]c2ccccc12)NC(=O)[C@@H](NC(=O)[C@@H](NC(=O)[C@H](CC(C)C)NC(=O)[C@H](CCC(N)=O)NC(=O)[C@H](CC(C)C)NC(=O)[C@@H](N)CC(C)C)[C@H](C)O)C(C)C)[C@@H](C)CC)[C@@H](C)CC (some centres undefined)
5 | > 4000 nM | CC[C@H](C)[C@H](NC(=O)CNC(=O)[C@H](Cc1c[nH]c2ccccc12)NC(=O)[C@@H](NC(=O)[C@@H](NC(=O)[C@H](CC(C)C)NC(=O)[C@H](CCC(N)=O)NC(=O)[C@H](CC(C)C)NC(=O)[C@@H](N)CC(C)C)[C@H](C)O)C(C)C)C(=O)N[C@@H](CCCCN)C(=O)N[C@@H](CCC(N)=O)C(=O)N[C@@H](CC(C)C)C(=O)N[C@@H](CCC(N)=O)C(=O)N[C@@H](C)C(=O)N[C@@H](CCCNC(=N)N)C(=O)N[C@H](C(=O)N[C@@H](CC(C)C)C(=O)O)[C@@H](C)CC

System: Human immunodeficiency virus 1
Assay: Antiviral activity against HIV-1 HXB2 assessed as inhibition of viral fusion with human TZM-bl cells after 6 hrs by luciferase reporter gene assay
Type: functional, organism-based
Details: Human immunodeficiency virus 1, HXB2, TZM-bl

Row | IC50 | Molecule
6 | 1.3 nM | CCCCCCCCCCCCCCCC(=O)[C@H](CCCCN)NC(=O)[C@H](CCC(=O)O)NC(=O)[C@H](CC(C)C)NC(=O)[C@H](CC(C)C)NC(=O)[C@H](CCC(=O)O)NC(=O)[C@H](CCC(N)=O)NC(=O)[C@H](CCC(=O)O)NC(=O)[C@H](CC(N)=O)NC(=O)[C@H](CCCCN)NC(=O)[C@H](CCC(=O)O)NC(=O)[C@H](CCC(N)=O)NC(=O)[C@H](CCC(N)=O)NC(=O)[C@H](CC(N)=O)NC(=O)[C@H](CCC(N)=O)NC(=O)[C@H](CO)NC(=O)[C@H](CCC(=O)O)NC(=O)[C@H](CCC(=O)O)NC(=O)[C@@H](NC(=O)[C@H](CC(C)C)NC(=O)[C@H](CO)NC(=O)[C@H](Cc1c[nH]cn1)NC(=O)[C@@H](NC(=O)[C@H](CC(C)C)NC(=O)[C@H](CO)NC(=O)[C@@H](NC(=O)[C@@H](N)Cc1ccc(O)cc1)[C@H](C)O)[C@@H](C)CC)[C@@H](C)CC
7 | 2860 nM | H-YTSLIHSLIEESQNQQEKNEQELLE-OH

System: not listed separately
Assay: Inhibition of HIV-1 HXBc2 env-mediated cell fusion between viral infected human Jurkat cells and non infected human Jurkat E6-1 cells after 6 hrs by DiI/DiD probe-based flow cytometric analysis
Details: Human immunodeficiency virus 1, HXBc2, Jurkat

Row | Molecule | IC50
8 | CCCCCCCCCCCCCCCC(=O)NC(=O)CC[C@H](N)C(=O)N[C@@H](CC(C)C)C(=O)N[C@@H](CC(C)C)C(=O)N[C@@H](CO)C(=O)NCC(=O)N[C@H](C(=O)N[C@H](C(=O)N[C@@H](CCC(N)=O)C(=O)N[C@@H](CCC(N)=O)C(=O)N[C@@H](CCC(N)=O)C(=O)N[C@@H](CC(N)=O)C(=O)N[C@@H](CC(N)=O)C(=O)N[C@@H](CC(C)C)C(=O)N[C@@H](CC(C)C)C(=O)N[C@@H](CCCNC(=N)N)C(=O)N[C@@H](C)C(=O)N[C@H](C(=O)N[C@@H](CCC(=O)O)C(=O)N[C@@H](C)C(=O)N[C@@H](CCC(N)=O)C(=O)N[C@@H](CCC(N)=O)C(=O)N[C@@H](Cc1c[nH]cn1)C(=O)N[C@@H](CC(C)C)C(=O)N[C@@H](CC(C)C)C(=O)N[C@@H](CCC(N)=O)C(=O)O)[C@@H](C)CC)C(C)C)[C@@H](C)CC (H-[X1]LLSGIVQQQNNLLRAIEAQQHLLQ-OH) | 10 nM
9 | H-LLSGIVQQQNNLLRAIEAQQHLLQ-OH | 338 nM
